How the values were obtained:
[1] = system: K-562 cells; test: Cell growth inhibition assay (CellTiter-Glo), K-562; format: cell-based, human; conditions: Homo sapiens, K562, read-out: K-562 TGI
In short: (§1)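 CellTiter-Glo ATP luminescence after compound exposure at 37° C., 5% CO2; 3-fold serial dilutions from 10 μM, 0.1% DMSO vehicle. Readings background- and day 0-corrected, vehicle = 100%, medium = −100%. IC50 and total growth inhibition (TGI) from four-parameter fits.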

[2] = system: MV-4-11 cells; test: Cell growth inhibition assay (CellTiter-Glo), MV-4-11; format: cell-based; conditions: Homo sapiens, MV4-11, read-out: MV-4-11 TGI
In short: as §1

[3] = system: THP-1 cells; test: Cell growth inhibition assay (CellTiter-Glo), THP-1; format: cell-based; conditions: Homo sapiens, read-out: THP-1 TGI
In short: as §1

[4] = target: His-Brd2(60-472) (Homo sapiens (Human), UniProt P25440); test: TR-FRET in-vitro binding assay for BRD2; conditions: biochemical
His-Brd2(60-472), sequence (P25440 60-472): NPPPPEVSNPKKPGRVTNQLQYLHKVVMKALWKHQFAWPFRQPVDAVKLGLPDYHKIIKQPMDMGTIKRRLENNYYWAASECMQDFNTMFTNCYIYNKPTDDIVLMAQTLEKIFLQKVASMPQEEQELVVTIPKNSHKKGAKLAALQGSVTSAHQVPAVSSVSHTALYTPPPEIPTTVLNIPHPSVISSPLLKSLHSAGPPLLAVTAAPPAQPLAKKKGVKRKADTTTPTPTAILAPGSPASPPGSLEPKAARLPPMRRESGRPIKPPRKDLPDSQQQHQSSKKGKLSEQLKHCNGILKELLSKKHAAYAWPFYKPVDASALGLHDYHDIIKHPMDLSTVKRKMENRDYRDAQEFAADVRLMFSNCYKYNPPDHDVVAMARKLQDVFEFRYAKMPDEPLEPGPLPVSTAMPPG
In short: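 Eight-point dilution series tested against in-house His-BRD2(60-472), BRD3(20-477) or BRD4(44-477) (45 nM in dispensed solution) binding acetyl-histone H4 (AcK5,8,12,16; 60 nM in dispensed solution). Incubation 35 min at 30 °C, pH 7.5 HEPES buffer; detection by TR-FRET using Eu-anti-His6 and streptavidin-allophycocyanin.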

[5] = target: His-CREBBP (1081-1197) bromodomain (Homo sapiens (Human), UniProt Q92793); test: AlphaScreen in-vitro binding assay for CREBBP; conditions: biochemical
His-CREBBP (1081-1197) bromodomain, sequence (Q92793 1081-1197): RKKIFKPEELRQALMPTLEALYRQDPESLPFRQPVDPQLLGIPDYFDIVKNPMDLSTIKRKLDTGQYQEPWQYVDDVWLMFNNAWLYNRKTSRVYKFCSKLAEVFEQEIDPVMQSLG
In short: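 Ni-chelate acceptor and streptavidin donor beads (45 µg/mL each, in 50 mM HEPES pH 7.5, 150 mM NaCl, 0.02% BSA) were then added for 60 min at room temperature. IC50 came from 8-point non-linear regression.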

Row | Structure (SMILES) | IC (total growth inhibition) [1] [µM] | IC (total growth inhibition) [2] [µM] | IC (total growth inhibition) [3] [µM] | IC50 [4] [nM] | IC50 [5] [nM]
1 | Cc1nn(C2CC2)c2c1C(c1ccc(Cl)cc1)N(c1ccc3nnn(C)c3n1)C2=O (stereo not drawn) [Example 102, 4-(4-chlorophenyl)-1-cyclopropyl-3-methyl-5-(3-methyl-3H-[1,2,3]triazolo[4,5-b]-pyridin-5-yl)-4,5-dihydropyrrolo[3,4-c]pyrazol-6(1H)-one] | > 10 | 0.141 | 0.304 | 72 | > 37000
2 | Cc1nn(C(C)C)c2c1[C@H](c1ccc(Cl)cc1)N(c1cc(C)c(=O)n(C)c1)C2=O [Example 103, (S)-4-(4-chlorophenyl)-5-(1,5-dimethyl-6-oxo-1,6-dihydropyridin-3-yl)-1-isopropyl-3-methyl-4,5-dihydropyrrolo[3,4-c]pyrazol-6(1H)-one] | > 10 | 6.54 | > 10 | 5300 | > 37000
3 | Cc1nn(C(C)C)c2c1[C@@H](c1ccc(Cl)cc1)N(c1cc(C)c(=O)n(C)c1)C2=O [Example 104, (R)-4-(4-chlorophenyl)-5-(1,5-dimethyl-6-oxo-1,6-dihydropyridin-3-yl)-1-isopropyl-3-methyl-4,5-dihydropyrrolo[3,4-c]pyrazol-6(1H)-one] | > 10 | 0.0191 | 0.045 | 14 | 1200
4 | CCc1nn(C)c2c1C(c1ccc(Cl)cc1)N(c1cc(OC)c3nnc(C)n3c1)C2=O (stereo not drawn) [Example 105, 4-(4-chlorophenol)-3-ethyl-5-(8-methoxy-3-methyl-[1,2,4]triazolo[4,3-a]pyridin-6-yl)-1-methyl-4,5-dihydropyrrolo[3,4-c]pyrazol-6(1H)-one] | > 10 | 0.164 | 0.335 | 130 | > 37000
5 | CCc1nn(C2CC2)c2c1[C@H](c1ccc(Cl)cc1)N(c1cc(C)c3nnc(C)n3c1)C2=O [Example 106, (S)-4-(4-chlorophenyl)-1-cyclopropyl-5-(3,8-dimethyl-[1,2,4]triazolo[4,3-a]pyridin-6-yl)-3-ethyl-4,5-dihydropyrrolo[3,4-c]pyrazol-6(1H)-one] | > 10 | 1.48 | 4.68 | 2900 | > 37000
6 | CCc1nn(C2CC2)c2c1[C@@H](c1ccc(Cl)cc1)N(c1cc(C)c3nnc(C)n3c1)C2=O [Example 107, (R)-4-(4-chlorophenyl)-1-cyclopropyl-5-(3,8-dimethyl-[1,2,4]triazolo[4,3-a]pyridin-6-yl)-3-ethyl-4,5-dihydropyrrolo[3,4-c]pyrazol-6(1H)-one] | > 10 | 0.0113 | 0.0199 | 14 | 6900
7 | CCc1nn(CCOCC(F)(F)F)c2c1C(c1ccc(Cl)cc1)N(c1cc(OC)c3nnc(C)n3c1)C2=O (stereo not drawn) [Example 108, 4-(4-chlorophenyl)-3-ethyl-5-(8-methoxy-3-methyl-[1,2,4]triazolo[4,3-a]pyridin-6-yl)-1-(2-(2,2,2-trifluoroethoxy)ethyl)-4,5-dihydropyrrolo[3,4-c]pyrazol-6(1H)-one] | > 10 | 0.445 | 0.832 | 210 | > 37000
8 | COc1ncccc1-n1nc(C)c2c1C(=O)N(c1cc(C)c3nnn(C)c3n1)C2c1ccc(Cl)cc1 (stereo not drawn) [Example 109, 4-(4-chlorophenyl)-5-(3,7-dimethyl-3H-[1,2,3]triazolo[4,5-b]pyridin-5-yl)-1-(2-methoxypyridin-3-yl)-3-methyl-4,5-dihydropyrrolo[3,4-c]pyrazol-6(1H)-one] | > 10 | 0.0381 | 0.0904 | 27 | > 37000
9 | Cc1nn(C2CC2)c2c1C(c1ccc(Cl)cc1)N(c1cc(C)c3nnn(C)c3n1)C2=O (stereo not drawn) [Example 110, 4-(4-chlorophenyl)-1-cyclopropyl-5-(3,7-dimethyl-3H-[1,2,3]triazolo[4,5-b]pyridin-5-yl)-3-methyl-4,5-dihydropyrrolo[3,4-c]pyrazol-6(1H)-one] | > 10 | 0.0102 | 0.0198 | 18 | > 37000
10 | COc1ncccc1-n1nc(C)c2c1C(=O)N(c1cc(C)c3nnc(C)n3n1)C2c1ccc(Cl)cc1 (stereo not drawn) [Example 111, 4-(4-chlorophenyl)-5-(3,8-dimethyl-[1,2,4]triazolo[4,3-b]pyridazin-6-yl)-1-(2-methoxypyridin-3-yl)-3-methyl-4,5-dihydropyrrolo[3,4-c]pyrazol-6(1H)-one] | > 10 | 0.0306 | 0.0484 | 32 | 29700
11 | Cc1nn(C2CC2)c2c1C(c1ccc(Cl)cc1)N(c1cc(N(C)C(=O)OC(C)(C)C)c3nnc(C)n3n1)C2=O (stereo not drawn) [Example 112, tert-butyl (6-(4-(4-chlorophenyl)-1-cyclopropyl-3-methyl-6-oxopyrrolo[3,4-c]pyrazol-5(1H,4H,6H)-yl)-3-methyl-[1,2,4]triazolo[4,3-b]pyridazin-8-yl)(methyl)carbamate] | > 10 | 1.21 | 3.17 | > 37000 | > 37000
12 | Cc1nn(-c2ccnn2C)c2c1C(c1ccc(Cl)cc1)N(c1cc(C)c3nnc(C)n3n1)C2=O (stereo not drawn) [Example 114, 4-(4-chlorophenyl)-5-(3,8-dimethyl-[1,2,4]triazolo[4,3-b]pyridazin-6-yl)-3-methyl-1-(1-methyl-1H-pyrazol-5-yl)-4,5-dihydropyrrolo[3,4-c]pyrazol-6(1H)-one] | > 10 | 0.0443 | 0.0765 | 35 | > 37000
13 | CCn1nc2c(c1C)C(c1ccc(Cl)cc1)N(c1cc(C)c3nnc(C)n3c1)C2=O (stereo not drawn) [Example 115, 4-(4-chlorophenyl)-5-(3,8-dimethyl-[1,2,4]triazolo[4,3-a]pyridin-6-yl)-2-ethyl-3-methyl-4,5-dihydropyrrolo[3,4-c]pyrazol-6(2H)-one] | > 10 | 0.0482 | 0.0712 | 48 | 1200
14 | CCn1nc(C)c2c1C(=O)N(c1cc(C)c3nnc(C)n3c1)C2c1ccc(Cl)cc1 (stereo not drawn) [Example 116, 4-(4-chlorophenyl)-5-(3,8-dimethyl-[1,2,4]triazolo[4,3-a]pyridin-6-yl)-1-ethyl-3-methyl-4,5-dihydropyrrolo[3,4-c]pyrazol-6(1H)-one] | > 10 | 0.0301 | 0.0354 | 36 | 15000
15 | Cc1cc(N2C(=O)c3c(c(C4CC4)nn3-c3ccnn3C)C2c2ccc(Cl)cc2)cn2c(C)nnc12 (stereo not drawn) [Example 117, 4-(4-chlorophenyl)-3-cyclopropyl-5-(3,8-dimethyl-[1,2,4]triazolo[4,3-a]pyridin-6-yl)-1-(1-methyl-1H-pyrazol-5-yl)-4,5-dihydropyrrolo[3,4-c]pyrazol-6(1H)-one] | > 10 | 0.0391 | 0.0671 | 34 | > 37000
16 | Cc1nn(-c2ccnn2C)c2c1[C@@H](c1ccc(Cl)cc1)N(c1cc(C)c(=O)n(C)c1)C2=O [Example 120, (R)-4-(4-chlorophenyl)-5-(1,5-dimethyl-6-oxo-1,6-dihydropyridin-3-yl)-3-methyl-1-(1-methyl-1H-pyrazol-5-yl)-4,5-dihydropyrrolo[3,4-c]pyrazol-6(1H)-one] | > 10 | 0.106 | 0.165 | 78 | 4300
17 | Cc1nn(-c2ccnn2C)c2c1[C@H](c1ccc(Cl)cc1)N(c1cc(C)c(=O)n(C)c1)C2=O [Example 121, (S)-4-(4-chlorophenyl)-5-(1,5-dimethyl-6-oxo-1,6-dihydropyridin-3-yl)-3-methyl-1-(1-methyl-1H-pyrazol-5-yl)-4,5-dihydropyrrolo[3,4-c]pyrazol-6(1H)-one] | > 10 | 1.23 | 5.03 | 5300 | > 37000
18 | Cc1nn(-c2ccnn2C)c2c1[C@H](c1ccc(Cl)cc1)N(c1cc(C)c3nnc(C)n3c1)C2=O [Example 124, (S)-4-(4-chlorophenyl)-5-(3,8-dimethyl-[1,2,4]triazolo[4,3-a]pyridin-6-yl)-3-methyl-1-(1-methyl-1H-pyrazol-5-yl)-4,5-dihydropyrrolo[3,4-c]pyrazol-6(1H)-one] | > 10 | 0.73 | 1.54 | 29000 | > 37000

From patent US8975417B2, “Pyrazolopyrrolidine derivatives and their use in the treatment of disease” (Novartis AG, priority 2013, dated 2015)
